{
  "source": "patent US20250360160A1",
  "about": "“NEW MEDICAL USE OF TAFOXIPARIN” (DILAFOR AB, priority 2022, published 2025)",
  "assay": "anticoagulant activity",
  "details": "definition of DF01",
  "data": [
    {"substance": "tafoxiparin", "values": [
      {"measurement": "anticoagulant activity", "value": "essentially no anticoagulant activity"}
    ]}
  ]
}
